Measurements reported in US20100063006A1, “COMPOSITIONS AND METHODS TO REDUCE FAT AND RETRACT SKIN” (American Network of Lipolysis, LLC, priority 2006, published 2010).
Where a name gives a salt, the structure may show the parent alone.

Columns and labels:
[1] = nausea, vomiting, diarrhea, flushing, sweating, bradycardia; cited from earlier work
[2] = tested on: cultured human adipocytes; experiment: In vitro lipolysis assays (basal lipolysis rate, triglyceride detection) in cultured human adipocytes; assay type: cell-based; conditions: adipocytes incubated 12-14 hours in test composition; FIG. 8
Description: Lipolysis induced in cultured human adipocytes by certain embodiments of the inventive injectable compositions for fat reduction and their constituent components was assayed in vitro under controlled conditions.
Cells utilized for the in vitro assays were obtained from five different dermolipectomy specimens. Preadipocytes were cultured in differentiation media over 14 days to produce adipocytes incubated between 12-14 hours in each of 12 test solutions. Each of the cell lines incubated in each of the 12 test solutions were split and introduced into four in vitro assays.
Cell lines were incubated in each of the following compositions: • 1. Phosphatidylcholine 25.6 milligrams per milliliter (mg/mL)/Deoxycholate 24.8 mg/mL, Benzyl Alcohol 25.6 mg/mL, ISUPREL 8 mg/mL, and Ropivacaine 5 mg/mL. • 2. Phosphatidylcholine 24.0 mg/mL/Deoxycholate 19.8 mg/mL, Benzyl Alcohol 25.6 mg/mL, ISUPREL 8 mg/mL, and Ropivacaine 5 mg/mL. • 3. Phosphatidylcholine 50.0 mg/mL/Deoxycholate 42.0 mg/mL. • 4. Deoxycholate 10.0 mg/mL. • 5. Phosphatidylcholine 45.0 mg/mL/Deoxycholate 42.0 mg/mL. • 6. Phosphatidylcholine 53.0 mg/mL/Deoxycholate 42.0 mg/mL. • 7. Phosphatidylcholine 50 mg/mL in mineral oil. • 8. Deoxycholate 24.8 mg/mL. • 9. Benzyl alcohol 25.6 mg/mL. • 10. ISUPREL 8.0 mg/mL. • 11. Ropivacaine 5.0 mg/mL. • 12. Vitamin B complex and pentoxyffline • 13. Control--Saline Solution. […]
B. Basal Lipolysis Rate. Free lipid in collected supernatant was quantified using a Lipolyis assay available from Zan-Bio, Catalog No. LIP-1 to measure released glycerol. […] The quinoneimine dye has an absorbance maximum at 540 nanometers. The increase in absorbance at 540 nanometers is directly proportionate to glycerol concentration in the supernatant.
D. Triglyceride Detection. The amount of triglyceride was quantified by measurement of glycerol released by cell lysis into the supernatant utilizing a triglyceride assay kit available from Zen-Bio, Catalog No. TG-1-NC. There is a molar equivalent of triglyceride for each mole of glycerol detected.

Compound | total administered amount of PC above which cholinergic side effects occur [1] | lipolytic action (free lipids) compared with the saline control [2]
phosphatidylcholine [PC] | exceeds 2000 mg per treatment | –
OCc1ccccc1 [Test composition no. 9, Benzyl alcohol] | – | do not appear to have lipolytic action greater than the control
CCCN1CCCC[C@H]1C(=O)Nc1c(C)cccc1C [Test composition no. 11, Ropivacaine] | – | do not appear to have lipolytic action greater than the control
CC(C)NCC(O)c1ccc(O)c(O)c1 (stereo not shown) [Test composition no. 10, isoproterenol hydrochloride] | – | do not appear to have lipolytic action greater than the control
